According to ChEMBL document CHEMBL3992551, “Synthesis and evaluation of N-(benzofuran-5-yl)aromaticsulfonamide derivatives as novel HIF-1 inhibitors that possess anti-angiogenic potential” (Bioorg Med Chem, 2017):

What was measured:
[1] = target: T1, Hypoxia-inducible factor 1-alpha (Homo sapiens, UniProt Q16665); experiment: Inhibition of HIF-1alpha (unknown origin) transcriptional activity expressed in human MCF7 cells after 24 hrs under hypoxic condition by HRE luciferase reporter gene assay; assay type: cell-based
Target sequence in this assay (Q16665 whole entry): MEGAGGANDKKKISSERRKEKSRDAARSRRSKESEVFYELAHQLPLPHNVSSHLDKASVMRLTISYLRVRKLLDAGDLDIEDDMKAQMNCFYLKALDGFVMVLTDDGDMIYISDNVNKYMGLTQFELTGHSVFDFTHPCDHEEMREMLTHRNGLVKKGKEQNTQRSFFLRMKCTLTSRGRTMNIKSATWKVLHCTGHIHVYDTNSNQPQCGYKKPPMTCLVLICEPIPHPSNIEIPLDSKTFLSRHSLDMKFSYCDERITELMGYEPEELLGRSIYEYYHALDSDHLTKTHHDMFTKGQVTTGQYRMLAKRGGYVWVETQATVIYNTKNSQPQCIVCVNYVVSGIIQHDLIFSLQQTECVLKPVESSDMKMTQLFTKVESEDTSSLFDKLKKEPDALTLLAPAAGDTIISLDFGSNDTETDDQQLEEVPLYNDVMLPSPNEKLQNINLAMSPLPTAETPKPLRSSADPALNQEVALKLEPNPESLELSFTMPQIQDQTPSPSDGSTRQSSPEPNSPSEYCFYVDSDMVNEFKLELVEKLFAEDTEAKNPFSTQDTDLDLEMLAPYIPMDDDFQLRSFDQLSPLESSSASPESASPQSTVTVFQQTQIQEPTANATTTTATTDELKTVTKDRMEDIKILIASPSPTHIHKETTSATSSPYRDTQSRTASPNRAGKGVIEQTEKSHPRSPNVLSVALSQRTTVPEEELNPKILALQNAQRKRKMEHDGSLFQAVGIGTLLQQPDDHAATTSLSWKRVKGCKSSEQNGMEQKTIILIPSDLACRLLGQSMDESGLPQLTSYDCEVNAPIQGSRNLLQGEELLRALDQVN

MCF7 [2] = experiment: Cytotoxicity against human MCF7 cells harboring HRE-driven luciferase gene; assay type: cell-based
MCF7 [3] = experiment: Antiproliferative activity against human MCF7 cells after 72 hrs under hypoxic condition by MTT assay; assay type: functional, cell-based; settings: MCF7, 72 h
MDA-MB-231 = experiment: Antiproliferative activity against human MDA-MB-231 cells after 72 hrs under hypoxic condition by MTT assay; assay type: functional, cell-based; settings: MDA-MB-231, 72 h
MDA-MB-468 = experiment: Antiproliferative activity against human MDA-MB-468 cells after 72 hrs under hypoxic condition by MTT assay; assay type: functional, cell-based; settings: MDA-MB-468, 72 h
MCF7 [4] = experiment: Downregulation of HIF-1alpha mRNA expression level in human MCF7 cells after 24 hrs under hypoxic condition by RT-PCR method; assay type: functional, cell-based
MCF7 [5] = experiment: Downregulation of HIF-1alpha protein expression level in human MCF7 cells after 24 hrs under hypoxic condition by Western blot method; assay type: functional, cell-based
[6] = target: T1, Hypoxia-inducible factor 1-alpha; experiment: Inhibition of HIF-1alpha transcriptional activity in human MCF7 cells assessed as reduction in VEGF mRNA level after 24 hrs under hypoxic condition by RT-PCR method; assay type: cell-based
Target sequence in this assay (Q16665 whole entry, looked up): as the sequence (Q16665 whole entry) above

[7] = target: T1, Hypoxia-inducible factor 1-alpha; experiment: Inhibition of HIF-1alpha transcriptional activity in human MCF7 cells assessed as reduction in VEGF secretion after 24 hrs under hypoxic condition by ELISA; assay type: cell-based
HUVEC [8] = experiment: Cytotoxicity against HUVEC assessed as reduction in cell viability at 2.5 to 50 uM after 24 hrs by MTT assay; assay type: cell-based; settings: human
HUVEC [9] = experiment: Anti-migratory activity against HUVEC assessed as inhibition of hypoxia-induced cell movement after 24 hrs by wound healing assay; assay type: functional, cell-based; settings: Homo sapiens
HUVEC [10] = experiment: Anti-angiogenic activity against HUVEC assessed as inhibition of hypoxia-induced tube formation after 24 hrs by 2-dimensional matrigel assay; assay type: functional, cell-based; settings: Homo sapiens
Chorioallantoic membrane = experiment: Antiangiogenic activity in chicken chorioallantoic membrane assessed as inhibition of hypoxia-induced vessel formation after 3 days; assay type: functional; settings: Gallus gallus

SMILES | IC50 [1] [µM] | Activity (MCF7 [2]) | IC50 (MCF7 [3]) [µM] | IC50 (MDA-MB-231) [µM] | IC50 (MDA-MB-468) [µM] | Activity (MCF7 [4]) | Activity (MCF7 [5]) | inhibition [6] | IC50 [7] [µM] | inhibition [7] | Activity (HUVEC [8]) | inhibition (HUVEC [9]) | inhibition (HUVEC [10]) | inhibition (Chorioallantoic membrane)
CCOC(=O)c1oc2ccc(NS(=O)(=O)c3cccc(Br)c3)cc2c1C | 25.6 | Non-Toxic | 57 | 33.7 | 30.7 |  |  |  |  |  |  |  |  | 
CCOC(=O)c1oc2ccc(NS(=O)(=O)c3ccccc3C)cc2c1C | 19.4 | Non-Toxic | 105 | 89.2 | 53.4 |  |  |  |  |  |  |  |  | 
CCOC(=O)c1oc2ccc(NS(=O)(=O)c3ccc(OC)c(OC)c3)cc2c1C | 12.5 | Non-Toxic | 52 | 35.4 | 20.5 | Dose-dependent effect | Dose-dependent effect | Dose-dependent effect | 18.8 | Dose-dependent effect | Non-Toxic | Dose-dependent effect | Dose-dependent effect | Dose-dependent effect
CCOC(=O)c1oc2ccc(NS(=O)(=O)c3ccc([N+](=O)[O-])cc3)cc2c1C | 36.2 | Non-Toxic | 69.6 | 33.1 | 24 |  |  |  |  |  |  |  |  | 
CCOC(=O)c1oc2ccc(NS(=O)(=O)c3cccc([N+](=O)[O-])c3)cc2c1C | 29.4 | Non-Toxic | 74.8 | 59.9 | 30.1 |  |  |  |  |  |  |  |  | 
CCOC(=O)c1oc2ccc(NS(=O)(=O)c3ccc4ccccc4c3)cc2c1C | 22.6 | Non-Toxic | 20.8 | 21.6 | 15.7 |  |  |  |  |  |  |  |  | 
CCOC(=O)c1oc2ccc(NS(=O)(=O)c3ccccc3C(F)(F)F)cc2c1C | 16.5 | Non-Toxic | 93.9 | 82.4 | 74.9 |  |  |  |  |  |  |  |  | 
CCOC(=O)c1oc2ccc(NS(=O)(=O)c3cccc(C)c3)cc2c1C | 32.7 | Non-Toxic | 101 | 29.5 | 25.3 |  |  |  |  |  |  |  |  | 
CCOC(=O)c1oc2ccc(NS(=O)(=O)c3cccnc3)cc2c1C | 34.1 | Non-Toxic | > 200 | 141 | 62.9 |  |  |  |  |  |  |  |  | 
CCOC(=O)c1oc2ccc(NS(=O)(=O)c3ccc(C)cc3)cc2c1C | 45.4 | Non-Toxic | 53.9 | 25.2 | 24 |  |  |  |  |  |  |  |  | 
CCOC(=O)c1oc2ccc(NS(=O)(=O)c3cccs3)cc2c1C | 45.4 | Non-Toxic | 92.3 | 44.1 | 34.3 |  |  |  |  |  |  |  |  | 
CCOC(=O)c1oc2ccc(NS(=O)(=O)c3cccc(Cl)c3)cc2c1C | 36.6 | Non-Toxic | 83.9 | 57.3 | 53.7 |  |  |  |  |  |  |  |  | 
CCOC(=O)c1oc2ccc(NS(=O)(=O)c3ccccc3[N+](=O)[O-])cc2c1C | 24.4 | Non-Toxic | 157 | 80.4 | 96.9 |  |  |  |  |  |  |  |  | 
CCOC(=O)c1oc2ccc(NS(=O)(=O)c3ccc(Cl)cc3)cc2c1C | 50 | Non-Toxic | 81.2 | 53.9 | 44 |  |  |  |  |  |  |  |  | 
CCOC(=O)c1oc2ccc(NS(=O)(=O)c3ccccc3Br)cc2c1C | 19.9 | Non-Toxic | 185 | 179 | 138 |  |  |  |  |  |  |  |  | 
CCOC(=O)c1oc2ccc(NS(=O)(=O)c3ccccc3Cl)cc2c1C | 20.8 | Non-Toxic | > 200 | > 200 | 137 |  |  |  |  |  |  |  |  | 
CCOC(=O)c1oc2ccc(NS(=O)(=O)c3ccc(Br)cc3)cc2c1C | 29.9 | Non-Toxic | 56.5 | 31.1 | 26.4 |  |  |  |  |  |  |  |  | 
CCOC(=O)c1oc2ccc(NS(=O)(=O)c3ccc(C(F)(F)F)cc3)cc2c1C | 41.7 | Non-Toxic | 48.7 | 24.3 | 27.2 |  |  |  |  |  |  |  |  | 
CCOC(=O)c1oc2ccc(NS(=O)(=O)c3cc(OC)ccc3OC)cc2c1C | 15.5 | Non-Toxic | 52.3 | 26.7 | 20.7 |  |  |  |  |  |  |  |  | 
CCOC(=O)c1oc2ccc(NS(=O)(=O)c3cccc(C(F)(F)F)c3)cc2c1C | 36.3 | Non-Toxic | 51.4 | 30.2 | 28.9 |  |  |  |  |  |  |  |  | 
CCOC(=O)c1oc2ccc(NS(=O)(=O)c3ccc(C(C)(C)C)cc3)cc2c1C | 27.1 | Non-Toxic | 22.1 | 22.4 | 8.1 |  |  |  |  |  |  |  |  | 
